# Experimental data from US20080200405A1, “Drug Resistance Reversal In Neoplastic Disease” (priority 2007, published 2008).
# What was measured:
# Angiogenesis in CAM = experiment: Neovascularization on the CAM (Inhibition of Angiogenesis in CAM); assay type: in vivo, chicken; conditions: 30 ug
# Procedure: In vivo neovascularization was examined by the method previously described by Auerbach et al. (J. Dev. Biol. 41:391-394 (1974)). Ten-day old chicken embryos were purchased from Spafas, Inc. (Preston, Conn.) and were incubated at 37° C. with 55% relative humidity. In the dark, with the aid of a candling lamp, a small hole was punctured in the shell concealing the air sac with a hypodermic needle. A second hole was punctured in the shell on the broadside of the egg directly over an […] portion of the embryonic membrane, as observed during candling. An artificial air sac was created beneath the second hole by applying gentle vacuum to the first hole using a small rubber squeeze bulb. The vacuum caused the chorioallantoic membrane (CAM) to separate from the shell. A window, approximately 1.0 cm^2, was cut in the shell over the dropped CAM with the use of a small crafts grinding wheel (Dremel, Division of Emerson Electric Company Racine, Wis.). The window allowed direct access to the underlying CAM. A pro-angiogenic agent was added to induce new blood vessel branches on the CAM of 10-day old embryos. […] Louis, Mo.) in a solution (95% ethanol and water). The disks were subsequently air dried under sterile conditions. The disks were then suspended in PBS (Phosphate Buffered Saline) and placed on growing CAMs. […] For inducing angiogenesis, sterile filter disks were saturated with bFGF (1 μg/ml) (Life Technologies, Gaithersburg, Md.) or other pro-angiogenesis factors and control disks were saturated with PBS without Calcium and Magnesium. Control disks were saturated with PBS without Calcium and Magnesium. Using sterile forceps one filter/CAM was placed from the window. The window was sealed with Highland brand transparent tape. After 24-48 hr, 10-25 ul of test agent was injected intravenously or added topically into the CAM membrane. Eight-Ten eggs/treatment group were used. CAM tissue directly beneath filter disk was harvested from embryos treated 48 hours prior with compound or control. Tissues were washed three times with PBS. Sections were placed in a 35-mm petri dish (Nalge Nunc, Rochester, N.Y.) and examined under a SV6 stereomicroscope (Karl Zeiss, Thornwood, N.Y.) at 50× magnification. […] Digital images of CAM sections from Petri dish were collected using a 3-CCD color video camera system (Toshiba America, New York, N.Y.). These images were analyzed using Image-Pro Plus software (Media Cybernetics, Silver Spring, Md.). The number of branch points in blood vessels within the circular region superimposed to the area of a filter disk was counted for each section. […] Tissues were washed three times with PBS. Sections were placed in a 35-mm Petri dish (Nalge Nunc; Rochester, N.Y.) and were examined under a SV6 stereomicroscope (Karl Zeiss; Thornwood, N.Y.) at 50× magnification. Digital images of CAM sections adjacent to filters were collected using a 3-CCD color video camera system (Toshiba America; New York, N.Y.) and analyzed with the Image-Pro Plus software (Media Cybernetics; Silver Spring, Md.). The number of vessel branch points contained in a circular region equal to the area of a filter disk was counted for each section. Percent inhibition data are expressed as the quotient of the experimental value minus the negative control value divided by the difference between the positive control value and the negative control value. One image was counted in each CAM preparation, and findings from eight CAM preparations were analyzed for each treatment condition. In addition, each experiment was performed three times. The resulting angiogenesis index is the mean ±SEM (Standard Error of Measurement) of new branch points in each set of treatment. Statistical analysis of blood vessel branching patterns are performed by 1-way analysis of variance (ANOVA) comparing experimental with corresponding control groups.
# [1] = In vitro stability of OT-551 in rabbit plasma; assay type: in vitro ADME
# Procedure: The active metabolite of OT-551 (Cyclopropanecarboxylic acid 1-hydroxy-2,2,6,6-tetramethyl-piperidin-4-yl ester) is TP-H. The objective of this analysis was to determine the in vitro half-life of OT-551 in rat, rabbit, dog, and human plasma under standardized incubation conditions.
# OT-551 was incubated with pooled rat, rabbit, dog, and human plasma for various times under standardized incubation conditions. Pre-labeled tubes containing pooled plasma from rats, rabbits, dogs, and humans were pre-incubated in a shaking 37° C. water bath. A OT-551 solution was added to the tubes at a final concentration of 1000 ng/mL. Time zero samples (n=5) were immediately removed and transferred into tubes containing a stabilizer solution (DTPA, acetylcysteine and ascorbic acid), the LC/MS/MS assay internal standard and methanol. […] The tubes were vortexed, placed on ice, followed by centrifugation. One hundred-μL aliquots of the supernatant were transferred into HPLC sample vials. Additional tubes (n=5 at each time point) were incubated for 5, 10, 20, 30, 60, 120, and 240 minutes at 37° C. and thereafter processed. The amount of OT-551 and TP-H in each incubated sample was quantified using validated LC/MS/MS assays.
# [2] = Single-dose 10-minute intravenous infusion toxicokinetics of OT-551; assay type: in vivo, Sprague-Dawley rats
# Procedure: Blood for toxicokinetic evaluations was collected at pre-determined time points during and after the infusion. Plasma samples were analyzed for OT-551 and TP-H using validated LC/MS/MS assays. Descriptive toxicokinetic parameters were determined by standard model independent methods (Gilbaldi and Perrier, 1982) based on the plasma concentration-time data. […] The plasma concentrations were rounded to the nearest tenth of a ng/mL before the calculations. […] Nominal time points were used for all calculations. Since there was no apparent gender difference in the plasma concentrations of OT-551 and TP-H, the data for male and female rats at each sampling time point were pooled.
# mouse V79 cells = conditions: cited from earlier work
# [3] = Sprague-Dawley rats, 10-minute iv infusion of OT-551 10 mg/kg
# [4] = Sprague-Dawley rats, 10-minute iv infusion of OT-551 30 mg/kg
# [5] = Sprague-Dawley rats, 10-minute iv infusion of OT-551 100 mg/kg
# [6] = Sprague-Dawley rats, 10-minute iv infusion of OT-551 200 mg/kg
compound,measurement,setting,value
"CC1(C)CC(OC(=O)C2CC2)CC(C)(C)N1O.Cl [OT-551, 1-hydroxy-4-cyclopropanecarbonyloxy-2,2,6,6-tetramethylpiperidine hydrochloride]","Inhibition of Angiogenesis in CAM, % Inhibition","Angiogenesis in CAM; listed as OT-551 HCl, hydrochloride",74 ± 4%
same,inhibition in vivo at 0.03 mg,Angiogenesis in CAM; Gallus gallus,75.2 ± 9.7%
same,Concentrations (ng/mL) of OT-551 in Rabbit Plasma,[1]; incubation time 0 min,502.75 ± 74.66 ng/mL
same,Concentrations (ng/mL) of OT-551 in Rabbit Plasma,[1]; incubation time 5 min,14.56 ± 3.35 ng/mL
same,Concentrations (ng/mL) of OT-551 in Rabbit Plasma,[1]; incubation time 10 min,0.00 ± 0.00 ng/mL
same,Concentrations (ng/mL) of OT-551 in Rabbit Plasma,[1]; incubation time 20 min,0.00 ± 0.00 ng/mL
same,Concentrations (ng/mL) of OT-551 in Rabbit Plasma,[1]; incubation time 30 min,0.00 ± 0.00 ng/mL
same,Concentrations (ng/mL) of OT-551 in Rabbit Plasma,[1]; incubation time 60 min,0.00 ± 0.00 ng/mL
same,Concentrations (ng/mL) of OT-551 in Rabbit Plasma,[1]; incubation time 120 min,0.00 ± 0.00 ng/mL
same,Concentrations (ng/mL) of OT-551 in Rabbit Plasma,[1]; incubation time 240 min,0.00 ± 0.00 ng/mL
same,peak plasma concentration of OT-551 at the end of the infusion,"[2]; 10 mg/kg OT-551, 10-minute i.v. infusion",980.5 ng/mL
same,plasma level of OT-551 one hour after termination of the infusion,"[2]; 10 mg/kg, assay limit <50 ng/mL",not quantifiable
same,peak plasma concentration of OT-551 at the end of the infusion,"[2]; 30 mg/kg OT-551, 10-minute i.v. infusion",3487.1 ng/mL
same,peak plasma concentration of OT-551 at the end of the infusion,"[2]; 100 mg/kg OT-551, 10-minute i.v. infusion",29020.0 ng/mL
same,peak plasma concentration of OT-551 at the end of the infusion,"[2]; 200 mg/kg OT-551, 10-minute i.v. infusion",89740.8 ng/mL
same,plasma levels of OT-551 four hours after termination of the infusion,"[2]; 30 to 200 mg/kg, assay limit <50 ng/mL",not quantifiable
same,Cmax of OT-551,[2]; [3],980.5 ng/mL
same,Cmax of OT-551,[2]; [4],3487.1 ng/mL
same,Cmax of OT-551,[2]; [5],29020.0 ng/mL
same,Cmax of OT-551,[2]; [6],89740.8 ng/mL
same,clearance of OT-551 in rats,"[2]; rat, in vivo",very rapid
CC1(C)CC(O)CC(C)(C)N1O [TEMPOL-H],"Inhibition of Angiogenesis in CAM, % Inhibition",Angiogenesis in CAM,43 ± 10%
same,Concentrations (ng/mL) of TP-H in Rabbit Plasma,[1]; OT-551 incubation time 0 min,270.55 ± 35.45 ng/mL
same,Concentrations (ng/mL) of TP-H in Rabbit Plasma,[1]; OT-551 incubation time 5 min,587.17 ± 21.99 ng/mL
same,Concentrations (ng/mL) of TP-H in Rabbit Plasma,[1]; OT-551 incubation time 10 min,604.21 ± 21.99 ng/mL
same,Concentrations (ng/mL) of TP-H in Rabbit Plasma,[1]; OT-551 incubation time 20 min,590.06 ± 40.97 ng/mL
same,Concentrations (ng/mL) of TP-H in Rabbit Plasma,[1]; OT-551 incubation time 30 min,533.01 ± 117.40 ng/mL
same,Concentrations (ng/mL) of TP-H in Rabbit Plasma,[1]; OT-551 incubation time 60 min,569.19 ± 32.96 ng/mL
same,Concentrations (ng/mL) of TP-H in Rabbit Plasma,[1]; OT-551 incubation time 120 min,525.63 ± 10.31 ng/mL
same,Concentrations (ng/mL) of TP-H in Rabbit Plasma,[1]; OT-551 incubation time 240 min,477.54 ± 40.95 ng/mL
same,peak plasma concentration of TP-H at the end of the OT-551 infusion,[2]; 10 mg/kg OT-551,2481.7 ng/mL
same,plasma levels of TP-H at 4 hr post infusion,[2]; 10 mg/kg OT-551,still quantifiable
same,terminal elimination half-life of TP-H,[2]; 10 mg/kg OT-551,24 min
same,peak plasma concentration of TP-H at the end of the OT-551 infusion,[2]; 30 mg/kg OT-551,8337.7 ng/mL
same,peak plasma concentration of TP-H at the end of the OT-551 infusion,[2]; 100 mg/kg OT-551,29020.8 ng/mL
same,peak plasma concentration of TP-H at the end of the OT-551 infusion,[2]; 200 mg/kg OT-551,60802.1 ng/mL
same,levels of TP-H four hours after terminating the infusion relative to concentrations immediately after terminating the infusion,"[2]; 30, 100 and 200 mg/kg OT-551",less than 1%
same,Mean ± SD Plasma Concentrations of TP-H,"[2]; OT-551 10 mg/kg iv infusion, 1.167 hr",204.7 ± 85.6 ng/mL
same,Mean ± SD Plasma Concentrations of TP-H,"[2]; OT-551 10 mg/kg iv infusion, 2.167 hr",25.2 ± 24.0 ng/mL
same,Mean ± SD Plasma Concentrations of TP-H,"[2]; OT-551 10 mg/kg iv infusion, 4.167 hr",4.2 ± 10.3 ng/mL
same,Mean ± SD Plasma Concentrations of TP-H,"[2]; OT-551 30 mg/kg iv infusion, 4.167 hr, n = 5",53.8 ± 29.7 ng/mL
same,Mean ± SD Plasma Concentrations of TP-H,"[2]; OT-551 100 mg/kg iv infusion, 4.167 hr",160.0 ± 97.5 ng/mL
same,Mean ± SD Plasma Concentrations of TP-H,"[2]; OT-551 200 mg/kg iv infusion, 4.167 hr",524.5 ± 237.0 ng/mL
same,AUC(0-4.167 hr) of TP-H,[2]; [3],1694.8 ng·h/mL
same,Cmax of TP-H,[2]; [3],2481.7 ng/mL
same,T½ of TP-H,"[2]; Sprague-Dawley rats, 10-minute iv infusion of OT-551 10 mg/kg, elimination half-life",24 min
same,AUC of TP-H,"[2]; Sprague-Dawley rats, 10-minute iv infusion of OT-551 10 mg/kg, to time infinity",1697.5 ng·h/mL
same,Cmax of TP-H,[2]; [4],8337.7 ng/mL
same,Cmax of TP-H,[2]; [5],29020.8 ng/mL
same,Cmax of TP-H,[2]; [6],60802.2 ng/mL
same,Mean ± SD Plasma Concentrations of TP-H,"[2]; Sprague-Dawley rats, single 10-minute iv infusion of OT-551 10 mg/kg, 0.167 hr from start of infusion",2481.7 ± 325.8 ng/mL
same,Mean ± SD Plasma Concentrations of TP-H,"[2]; Sprague-Dawley rats, single 10-minute iv infusion of OT-551 30 mg/kg, 0.167 hr, n = 5",8337.7 ± 2099.5 ng/mL
same,Mean ± SD Plasma Concentrations of TP-H,"[2]; Sprague-Dawley rats, single 10-minute iv infusion of OT-551 100 mg/kg, 0.167 hr",29020.8 ± 11713.7 ng/mL
same,Mean ± SD Plasma Concentrations of TP-H,"[2]; Sprague-Dawley rats, single 10-minute iv infusion of OT-551 200 mg/kg, 0.167 hr",60802.2 ± 8922.5 ng/mL
same,Tmax of TP-H,"[2]; rat, in vivo, iv",10 min
same,radioprotection of mouse V79 cells,mouse V79 cells,did not provide any radioprotection
